Source: patent US10399989B2, “Pyrazolopyrimidine derivatives as BTK inhibitors for the treatment of cancer” (Loxo Oncology, Inc., priority 2016, dated 2019)
Read-outs that look alike come from different tables or passages of the source.

Tests used:
BTK^WT = BTK^WT (Homo sapiens (Human), UniProt Q06187); experiment: BTK^WT binding affinity (TR-FRET, LanthaScreen)
Method: BTK^WT binding affinity of each compound tested was determined using a time-resolved fluorescence resonance energy transfer (TR-FRET) methodology. 2.5 nM Recombinant BTK^WT kinase, varying concentrations of inhibitor, 2 nM LanthaScreen™ Eu anti-His Antibody and 15 nM Kinase Tracer 236 was incubated in 1× LanthaScreen™ Kinase Buffer A for 5 h. Recombinant BTK kinase and all LanthaScreen™ components were purchased from Invitrogen. Measurements were performed in a reaction volume of 30 μL using half-area 96-well assay plates. The TR-FRET signal was read on a plate reader with an excitation wavelength of 340 nm and detection wavelengths of 615 and 665 nm. Binding affinity was determined for each compound by measuring TR-FRET signal at various concentrations of compound and plotting the relative fluorescence units against the inhibitor concentration to estimate the IC50 from log [Inhibitor] vs response using the Variable Slope model in Graphpad prism from Graphpad software (SanDiego, Calif.).

BTK^C481S = BTK^C481S (Homo sapiens (Human), UniProt Q06187, C481S); experiment: BTK^C481S binding affinity (TR-FRET, LanthaScreen); settings: 5 h incubation
Chain of BTK^C481S (Q06187 whole entry C481S): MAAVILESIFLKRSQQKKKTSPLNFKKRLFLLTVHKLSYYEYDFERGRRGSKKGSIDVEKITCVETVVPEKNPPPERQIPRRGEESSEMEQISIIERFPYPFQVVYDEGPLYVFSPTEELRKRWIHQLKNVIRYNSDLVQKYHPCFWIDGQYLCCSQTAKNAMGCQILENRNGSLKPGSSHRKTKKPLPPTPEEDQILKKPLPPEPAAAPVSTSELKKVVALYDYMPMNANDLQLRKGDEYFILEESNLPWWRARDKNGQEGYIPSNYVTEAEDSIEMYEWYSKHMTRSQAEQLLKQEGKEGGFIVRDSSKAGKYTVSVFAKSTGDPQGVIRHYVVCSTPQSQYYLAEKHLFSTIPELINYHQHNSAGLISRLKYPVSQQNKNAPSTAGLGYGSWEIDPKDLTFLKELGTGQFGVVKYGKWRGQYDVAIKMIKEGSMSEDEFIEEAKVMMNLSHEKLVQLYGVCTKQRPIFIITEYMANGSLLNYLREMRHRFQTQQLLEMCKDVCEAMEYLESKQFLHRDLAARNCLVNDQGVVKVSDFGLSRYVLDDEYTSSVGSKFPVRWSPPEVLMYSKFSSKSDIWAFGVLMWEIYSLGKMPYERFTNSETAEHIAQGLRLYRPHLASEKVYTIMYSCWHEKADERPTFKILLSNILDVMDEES
Method: BTK^C481S binding affinity of each compound tested was determined using a time-resolved fluorescence resonance energy transfer (TR-FRET) methodology. 5 nM Recombinant […] kinase, varying concentrations of inhibitor, 2 nM LanthaScreen™ Eu anti-His Antibody and 30 nM Kinase Tracer 236 was incubated in 1× LanthaScreen™ Kinase Buffer A for 5 h. Recombinant BTK^C481S kinase was purchased from SignalChem and all LanthaScreen™ components were purchased from Invitrogen. Measurements were performed in a reaction volume of 30 μL using half-area 96-well assay plates. The TR-FRET signal was read on a plate reader with an excitation wavelength of 340 nm and detection wavelengths of 615 and 665 nm. Binding affinity was determined for each compound by measuring TR-FRET signal at various concentrations of compound and plotting the relative fluorescence units against the inhibitor concentration to estimate the IC50 from log [Inhibitor] vs response using the Variable Slope model in Graphpad prism from Graphpad software (SanDiego, Calif.).

EGFR = EGFR (Homo sapiens (Human), UniProt P00533); experiment: EGFR binding affinity (TR-FRET, LanthaScreen); settings: 5 h incubation
Chain of EGFR (P00533 25-1210): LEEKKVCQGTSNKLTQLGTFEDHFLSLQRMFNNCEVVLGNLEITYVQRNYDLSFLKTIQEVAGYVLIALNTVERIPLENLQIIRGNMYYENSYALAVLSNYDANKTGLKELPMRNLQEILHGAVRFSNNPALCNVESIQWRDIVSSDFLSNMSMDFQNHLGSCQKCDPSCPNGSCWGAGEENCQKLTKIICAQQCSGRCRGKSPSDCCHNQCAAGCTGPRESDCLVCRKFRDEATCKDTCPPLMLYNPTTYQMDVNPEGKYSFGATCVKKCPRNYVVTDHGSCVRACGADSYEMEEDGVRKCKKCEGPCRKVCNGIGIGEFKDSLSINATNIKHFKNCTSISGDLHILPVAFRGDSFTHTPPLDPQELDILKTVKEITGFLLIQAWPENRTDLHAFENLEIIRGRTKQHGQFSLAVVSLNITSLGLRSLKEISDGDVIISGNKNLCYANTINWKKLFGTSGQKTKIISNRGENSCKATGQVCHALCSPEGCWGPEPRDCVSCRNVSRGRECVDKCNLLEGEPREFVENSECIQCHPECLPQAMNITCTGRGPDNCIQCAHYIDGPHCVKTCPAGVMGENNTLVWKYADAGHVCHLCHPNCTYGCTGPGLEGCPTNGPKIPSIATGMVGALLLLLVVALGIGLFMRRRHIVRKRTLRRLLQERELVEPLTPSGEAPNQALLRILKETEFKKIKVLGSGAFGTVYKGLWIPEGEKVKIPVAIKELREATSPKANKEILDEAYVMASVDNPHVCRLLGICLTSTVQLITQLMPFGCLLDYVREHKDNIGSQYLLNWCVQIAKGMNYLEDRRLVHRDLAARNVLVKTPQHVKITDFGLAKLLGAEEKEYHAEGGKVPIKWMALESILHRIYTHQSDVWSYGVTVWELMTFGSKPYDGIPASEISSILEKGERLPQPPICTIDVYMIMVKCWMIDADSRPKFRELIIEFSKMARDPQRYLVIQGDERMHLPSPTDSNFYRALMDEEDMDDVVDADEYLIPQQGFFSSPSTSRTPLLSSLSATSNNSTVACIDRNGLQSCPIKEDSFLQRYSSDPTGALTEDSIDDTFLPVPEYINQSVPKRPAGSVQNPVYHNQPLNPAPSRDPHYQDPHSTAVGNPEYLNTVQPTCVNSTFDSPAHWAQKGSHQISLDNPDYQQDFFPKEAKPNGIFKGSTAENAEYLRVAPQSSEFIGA
Method: EGFR binding affinity was determined using a time-resolved fluorescence resonance energy transfer (TR-FRET) methodology. 2.5 nM Recombinant EGFR, varying concentrations of inhibitor, 2 nM LanthaScreen™ Eu anti-GST Antibody and 3 nM Kinase Tracer 199 was incubated in 1× LanthaScreen™ Kinase Buffer A for 5 h. Recombinant EGFR and all LanthaScreen™ components were purchased from Invitrogen. Measurements were performed in a reaction volume of 30 μL using half-area 96-well assay plates. The TR-FRET signal was read on a plate reader with an excitation wavelength of 340 nm and detection wavelengths of 615 and 665 nm. Binding affinity was determined for each compound by measuring TR-FRET signal at various concentrations of compound and plotting the relative fluorescence units against the inhibitor concentration to estimate the IC50 from log [Inhibitor] vs response using the Variable Slope model in Graphpad prism from Graphpad software (SanDiego, Calif.).

[1] = TR-FRET binding, 5 h incubation, read-out: BTK^WT IC50
[2] = Table 6, numeric values, read-out: BTK Binding IC50

Chain of BTK^WT (Q06187 whole entry): as the sequence (Q06187 whole entry C481S) above, with S481C counted along it

Nc1ncnc2c1c(-c1ccc(CNC(=O)C3CNc4ccccc4O3)cc1)nn2C1CCCC1 (stereo not shown) [Example 86, N-[[4-(4-Amino-1-cyclopentyl-pyrazolo[3,4-d]pyrimidin-3-yl)phenyl]methyl]-3,4-dihydro-2H-1,4-benzoxazine-2-carboxamide]
IC50 (BTK^WT; [1]): > 10000 nM | IC50 (BTK^C481S): > 10000 nM

COc1cc2ccccc2cc1C(=O)NCc1ccc(-c2nn(C3CCCC3)c3ncnc(N)c23)cc1 [Example 71, N-[[4-(4-amino-1-cyclopentyl-pyrazolo[3,4-d]pyrimidin-3-yl)phenyl]methyl]-3-methoxy-naphthalene-2-carboxamide]
IC50 (BTK^WT; [1]): 100 to 1000 nM | IC50 (BTK^C481S): 100 to 1000 nM

COc1c(C)cccc1C(=O)NCc1ccc(-c2nn(C3CCCC3)c3ncnc(N)c23)cc1 [Example 22, N-[[4-(4-amino-1-cyclopentyl-pyrazolo[3,4-d]pyrimidin-3-yl)phenyl]methyl]-2-methoxy-3-methyl-benzamide]
IC50 (EGFR): 1000 to 10000 nM

COc1ccccc1C(=O)NCc1ccc(-c2nn(C3CCC4(CC3)OCCO4)c3ncnc(N)c23)cc1 [Example 19, N-[[4-[4-amino-1-(1,4-dioxaspiro[4.5]decan-8-yl)pyrazolo[3,4-d]pyrimidin-3-yl]phenyl]methyl]-2-methoxy-benzamide]
IC50 (BTK^WT; [1]): ≤ 10 nM | IC50 (BTK^C481S): ≤ 10 nM

COc1ccccc1C(=O)NCc1ccc(-c2nn([C@H]3CC[C@@H](C(=O)N(C)C)CC3)c3ncnc(N)c23)cc1 (single isomer, unassigned; isomer 2) [33-isomer 2]
IC50 (BTK^WT; [1]): ≤ 10 nM | IC50 (BTK^C481S): ≤ 10 nM

Nc1ncnc2c1c(-c1ccc(CNC(=O)c3cccc4ncoc34)cc1)nn2C1CCCC1 [Example 87, N-[[4-(4-amino-1-cyclopentyl-pyrazolo[3,4-d]pyrimidin-3-yl)phenyl]methyl]-1,3-benzoxazole-7-carboxamide]
IC50 (BTK^WT; [1]): 1000 to 10000 nM

COc1ccccc1C(=O)NCc1ccc(-c2nn(C(C)C)c3ncnc(N)c23)cc1 [Example 78, N-[[4-(4-amino-1-isopropyl-pyrazolo[3,4-d]pyrimidin-3-yl)phenyl]methyl]-2-methoxy-benzamide]
IC50 (BTK^WT; [1]): ≤ 10 nM | IC50 (BTK^C481S): ≤ 10 nM | IC50 (EGFR): 1000 to 10000 nM

Nc1ncnc2c1c(-c1ccc(CNC(=O)c3cc4ccccc4s3)cc1)nn2C1CCCC1 [Example 84, N-[[4-(4-amino-1-cyclopentyl-pyrazolo[3,4-d]pyrimidin-3-yl)phenyl]methyl]benzothiophene-2-carboxamide]
IC50 (BTK^WT; [1]): 1000 to 10000 nM

COc1ccccc1C(=O)NC1(c2ccc(-c3nn(C4CCCC4)c4ncnc(N)c34)cc2)CC1 [Example 67, N-[1-[4-(4-amino-1-cyclopentyl-pyrazolo[3,4-d]pyrimidin-3-yl)phenyl]cyclopropyl]-2-methoxy-benzamide]
IC50 (BTK^WT; [1]): 1000 to 10000 nM | IC50 (BTK^C481S): 1000 to 10000 nM | IC50 (EGFR): 1000 to 10000 nM

Nc1ncnc2c1c(-c1ccc(CNC(=O)c3nc4ccccc4s3)cc1)nn2C1CCCC1 [Example 82, N-[[4-(4-amino-1-cyclopentyl-pyrazolo[3,4-d]pyrimidin-3-yl)phenyl]methyl]-1,3-benzothiazole-2-carboxamide]
IC50 (BTK^WT; [1]): > 10000 nM | IC50 (EGFR): > 10000 nM

COc1ccccc1C(=O)N(C)Cc1ccc(-c2nn(C3CCCC3)c3ncnc(N)c23)cc1 [Example 17, N-[[4-(4-Amino-1-cyclopentyl-pyrazolo[3,4-d]pyrimidin-3-yl)phenyl]methyl]-2-methoxy-N-methyl-benzamide]
IC50 (EGFR): 1000 to 10000 nM

N#Cc1cccc(C(=O)NCc2ccc(-c3nn(C4CCCC4)c4ncnc(N)c34)cc2)c1 [Example 20, N-[[4-(4-amino-1-cyclopentyl-pyrazolo[3,4-d]pyrimidin-3-yl)phenyl]methyl]-3-cyano-benzamide]
IC50 (EGFR): 1000 to 10000 nM

COc1ccccc1C(=O)NCc1ccc(-c2nn(C3CCCC3)c3ncnc(N)c23)c(C)c1 [Example 79, N-[[4-(4-amino-1-cyclopentyl-pyrazolo[3,4-d]pyrimidin-3-yl)-3-methyl-phenyl]methyl]-2-methoxy-benzamide]
IC50 (BTK^WT; [1]): ≤ 10 nM | IC50 (BTK^C481S): ≤ 10 nM | IC50 (EGFR): 1000 to 10000 nM

COc1ccccc1C(=O)NCc1ccc(-c2nn(C3CCC(C(=O)O)CC3)c3ncnc(N)c23)cc1 (stereo not shown) [Example 30, 4-[4-amino-3-[4-[[(2-methoxybenzoyl)amino]methyl]phenyl]pyrazolo[3,4-d]pyrimidin-1-yl]cyclohexanecarboxylic acid]
IC50 (BTK^WT; [1]): ≤ 10 nM | IC50 (BTK^WT; [2]): 1.4 nM | IC50 (BTK^C481S): ≤ 10 nM | IC50 (EGFR): 100 to 1000 nM

Nc1ncnc2c1c(-c1ccc(CNC(=O)c3cc4ccccc4[nH]3)cc1)nn2C1CCCC1 [Example 88, N-[[4-(4-amino-1-cyclopentyl-pyrazolo[3,4-d]pyrimidin-3-yl)phenyl]methyl]-1H-indole-2-carboxamide]
IC50 (EGFR): 1000 to 10000 nM

COc1ccccc1C(=O)NCc1c(F)cc(-c2nn(C3CCCC3)c3ncnc(N)c23)cc1F [Example 73, N-[[4-(4-amino-1-cyclopentyl-pyrazolo[3,4-d]pyrimidin-3-yl)-2,6-difluoro-phenyl]methyl]-2-methoxy-benzamide]
IC50 (BTK^WT; [1]): 100 to 1000 nM | IC50 (BTK^C481S): 10 to 100 nM | IC50 (EGFR): 1000 to 10000 nM

Nc1ncnc2c1c(-c1ccc(CNC(=O)c3cc4ccccc4o3)cc1)nn2C1CCCC1 [Example 83, N-[[4-(4-amino-1-cyclopentyl-pyrazolo[3,4-d]pyrimidin-3-yl)phenyl]methyl]benzofuran-2-carboxamide]
IC50 (BTK^WT; [1]): > 10000 nM

COc1ccccc1C(=O)NCc1ccc(-c2nn([C@@H]3CCc4ccccc43)c3ncnc(N)c23)cc1 [Example 56, N-[(4-{4-amino-1-[(1R)-2,3-dihydro-1H-inden-1-yl]-1H-pyrazolo[3,4-d]pyrimidin-3-yl}phenyl)methyl]-2-methoxybenzamide]
IC50 (BTK^WT; [1]): ≤ 10 nM | IC50 (BTK^WT; [2]): 1.2 nM | IC50 (BTK^C481S): ≤ 10 nM

Nc1ncnc2c1c(-c1ccc(CNC(=O)c3ccc4ccccc4n3)cc1)nn2C1CCCC1 [Example 85, N-[[4-(4-amino-1-cyclopentyl-pyrazolo[3,4-d]pyrimidin-3-yl)phenyl]methyl]quinoline-2-carboxamide]
IC50 (BTK^WT; [1]): 1000 to 10000 nM

Nc1ncnc2c1c(-c1ccc(CNC(=O)c3ccc4ccccc4c3)cc1)nn2C1CCCC1 [Example 72, N-[[4-(4-amino-1-cyclopentyl-pyrazolo[3,4-d]pyrimidin-3-yl)phenyl]methyl]naphthalene-2-carboxamide]
IC50 (BTK^WT; [1]): 100 to 1000 nM

Nc1ncnc2c1c(-c1ccc(CNC(=O)c3ccccc3OC(F)(F)F)cc1)nn2C1CCCC1 [Example 6, N-[[4-(4-Amino-1-cyclopentyl-pyrazolo[3,4-d]pyrimidin-3-yl)phenyl]methyl]-2-(trifluoromethoxy)benzamide]
IC50 (BTK^WT; [1]): 100 to 1000 nM | IC50 (EGFR): 100 to 1000 nM
